{
  "source": "paper PMC2970513",
  "about": "(Chemical biology & drug design, 2009)",
  "origin": "cited, not measured here",
  "system": "μ receptor",
  "details": "compared with the N-methylated cyclic peptides of this paper",
  "data": [
    {"substance": "H-Tyr-D-Ala(NMe)-Phe-Sar-NH2", "values": [
      {"measurement": "μ receptor binding affinity, fold lower than those of the N-methylated cyclic peptides described here", "result": "30-80 fold"}
    ]}
  ]
}
